In ChEMBL document CHEMBL1201862, “PubChem BioAssay data set” (2004):
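Growth conditions: 96-well plates. Treatment: test compound, 48 hours, 5 concentrations. Analysis: linear interpolation between bracketing concentrations; unreached endpoints set to highest concentration. GI50 = concentration required for 50% inhibition of growth.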 Calls of active or inactive are those of the source. No stated cut-off is given here; in the data, active = GI50 up to about 1.1 µM and inactive = higher.

Assays:
Assay in all cases: DTP human tumour cell line panel, 48 h
[1] = tested on: SK-MEL-5
[2] = tested on: SF-539
[3] = tested on: CCRF-CEM
[4] = tested on: LOX IMVI
[5] = tested on: NCI-H23
[6] = tested on: RXF 631
[7] = tested on: NCI-H522
[8] = tested on: MOLT-4
[9] = tested on: CAKI-1
[10] = tested on: HCT-15
[11] = tested on: SK-OV-3
[12] = tested on: RXF 393
[13] = tested on: A549
[14] = tested on: U-251
[15] = tested on: DMS-114
[16] = tested on: K562
[17] = tested on: A498
[18] = tested on: SF-295
[19] = tested on: UACC-257
[20] = tested on: HOP-62
[21] = tested on: KM12
[22] = tested on: SNB-78
[23] = tested on: NCI-H226
[24] = tested on: SK-MEL-28
[25] = tested on: SR
[26] = tested on: HT-29
[27] = tested on: Malme-3M
[28] = tested on: RPMI-8226
[29] = tested on: OVCAR-4
[30] = tested on: ACHN
[31] = tested on: LXFL 529
[32] = tested on: SF-268
[33] = tested on: TK-10
[34] = tested on: SW-620
[35] = tested on: DLD-1
[36] = tested on: COLO 205
[37] = tested on: UO-31
[38] = tested on: HOP-18
[39] = tested on: UACC-62
[40] = tested on: 786-0
[41] = tested on: HL-60
[42] = tested on: SNB-19
[43] = tested on: KM-20L2
[44] = tested on: SK-MEL-2
[45] = tested on: IGROV-1
[46] = tested on: M14
[47] = tested on: OVCAR-8
[48] = tested on: SN12C
[49] = tested on: SNB-75
[50] = tested on: EKVX
[51] = tested on: M19-MEL
[52] = tested on: OVCAR-3
[53] = tested on: DMS-273
[54] = tested on: HCC 2998
[55] = tested on: NCI-H460

CCN(CC)C(=S)N/N=C(\C)c1ccccc1O
GI50 [1]: 10.7 µM (inactive)
GI50 [2]: 18 µM (inactive)
GI50 [3]: 5 µM (inactive)
GI50 [4]: 15.5 µM (inactive)
GI50 [5]: 25 µM (inactive)
GI50 [6]: 35.2 µM (inactive)
GI50 [7]: 8.57 µM (inactive)
GI50 [8]: 8.59 µM (inactive)
GI50 [9]: 18.4 µM (inactive)
GI50 [10]: 3.72 µM
GI50 [11]: 33.7 µM (inactive)
GI50 [12]: 25.6 µM (inactive)
GI50 [13]: 11.4 µM (inactive)
GI50 [14]: 16.9 µM (inactive)
GI50 [15]: 11.9 µM (inactive)
GI50 [16]: 0.0568 µM (active)
GI50 [17]: 20.5 µM (inactive)
GI50 [18]: 15.5 µM (inactive)
GI50 [19]: 27 µM (inactive)
GI50 [20]: 34.6 µM (inactive)
GI50 [21]: 15.5 µM (inactive)
GI50 [22]: > 100 µM (inactive)
GI50 [23]: 20.7 µM (inactive)
GI50 [24]: 23.4 µM (inactive)
GI50 [25]: 8.13 µM (inactive)
GI50 [26]: 19.5 µM (inactive)
GI50 [27]: 26.4 µM (inactive)
GI50 [28]: 18.5 µM (inactive)
GI50 [29]: > 100 µM (inactive)
GI50 [30]: 14.5 µM (inactive)
GI50 [31]: 13.5 µM (inactive)
GI50 [32]: 17.9 µM (inactive)
GI50 [33]: 62.1 µM (inactive)
GI50 [34]: 22.9 µM (inactive)
GI50 [35]: 17.8 µM (inactive)
GI50 [36]: 40.9 µM (inactive)
GI50 [37]: 14.3 µM (inactive)
GI50 [38]: 26.2 µM (inactive)
GI50 [39]: 10.9 µM (inactive)
GI50 [40]: 26.2 µM (inactive)
GI50 [41]: 22.6 µM (inactive)
GI50 [42]: 20.8 µM (inactive)
GI50 [43]: 21.4 µM (inactive)
GI50 [44]: 19 µM (inactive)
GI50 [45]: 24.5 µM (inactive)
GI50 [46]: 17.5 µM (inactive)
GI50 [47]: 19.5 µM (inactive)
GI50 [48]: 20.9 µM (inactive)
GI50 [49]: 44.2 µM (inactive)
GI50 [50]: 36.4 µM (inactive)
GI50 [51]: 39.9 µM (inactive)
GI50 [52]: 34.3 µM (inactive)
GI50 [53]: 12.9 µM (inactive)
GI50 [54]: 13.4 µM (inactive)
GI50 [55]: 4.84 µM (inactive)
